From patent US20250206758A1, “SUBSTITUTED BRIDGED RING INHIBITOR, PREPARATION METHOD THEREFOR AND APPLICATION THEREOF” (SUZHOU ZELGEN BIOPHARMACEUTICALS CO., LTD., priority 2022, published 2025)
Where a name gives a salt, the structure may show the parent alone. Read-outs that look alike come from different tables or passages of the source.

Assays:
AsPC-1 = test: Cell proliferation inhibition, AsPC-1 (CellTiter-Glo 3D, 7 days); assay type: cell-based; conditions: AsPC-1, 7 days
Description: (§1) • (a) Resuscitating cells in T75 cell culture flask: • (b) When the cell confluence reaches 80-90%, subculturing the cells.
(§2) The diluted test compound was added to a 384-well cell culture plate with a nanoliter pipetting system, and duplicate wells were set up. An equal volume of culture medium was added to the positive control group; and an equal volume of DMSO was added to the negative control group, then centrifugation was conducted at 1000 rpm for 1 min at room temperature.
(§3) Cells were inoculated into a) 384-well culture plate, with an equal volume of cells added to the negative control group, and only an equal volume of culture medium added to the positive control group. The plate was centrifuged at 1000 rpm for 1 min at room temperature, and the final DMSO concentration of the compound was 0.5% at last. The plate was placed in a 37° C., 5% CO2 constant temperature incubator for 7 days.
(§4) 20 μL/well of CellTiter-Glo® 3D to b) was added to 384-well cell culture plate, and the plate was shook at 320 rpm for 20 min in the dark, and incubated at room temperature in the dark for 2 hrs.
(§5) The luminescence value was read using an Envision multi-functional microplate reader.
(§6) The inhibition rate (IR) of the test compound was calculated using the following formula: IR (%)=(1−(RLU compound−RLU blank control)/(RLU meidum control−RLU blank control))*100%. The inhibition rates of different concentrations of compounds were calculated in Excel, and then the inhibition curves were plotted and the related parameters (including the minimum inhibition rate, maximum inhibition rate and IC50) were calculated using GraphPad Prism software.

GP2D = test: Cell proliferation inhibition, GP2D (CellTiter-Glo 3D, 7 days); assay type: cell-based
Description: as §1, §2, §3, §4, §5, §6

| SMILES | IC50 (AsPC-1; Homo sapiens, ASPC1, 168 h) [nM] | IC50 (GP2D; 168 h) [nM] | IC50 (AsPC-1) [nM] | IC50 (GP2D) [nM] |
| --- | --- | --- | --- | --- |
| C#Cc1c(F)ccc2cc(O)cc(-c3ncc4c(N5CCCC(C)(N)C5)nc(OC[C@@]56CCCN5C[C@@]5(CC5(F)F)C6)nc4c3F)c12 (stereo partly drawn) [Example 29, 4-(4-(3-amino-3-methylpiperidin-1-yl)-2-(((1S,7a'S)-2,2-difluorodihydro-1′H,3′H-spiro[cyclopropan-1,2′-pyrrolizin]-7a′(5′H)-yl)methoxy)-8-fluoropyridino[4,3-d]pyrimidin-7-yl)-5-ethynyl-6-fluoronaphthalen-2-ol] | 180 | 17.7 | – | – |
| C#Cc1c(F)ccc2cc(O)cc(-c3ncc4c(N5C[C@H]6CC[C@@H](C5)N6)nc(OC[C@@]56CCC7(CC7)N5C[C@@H](F)C6)nc4c3F)c12 (relative stereo) [Example 12B, 4-(4-((1R,5S)-3,8-diazabicyclo[3.2.1]octan-3-yl)-8-fluoro-2-(((cis)-6′-fluorotetrahydrospiro[cyclopropan-1,3′-pyrrolizin]-7a′(5′H)-yl)methoxy)pyridino[4,3-d]pyrimidin-7-yl)-5-ethynyl-6-fluoronaphthalen-2-ol] | 390 | 29.6 | – | – |
| Nc1c(Cl)cc(Cl)c(F)c1-c1ncc2c(N3C[C@H]4CC[C@@H](C3)N4)nc(OC[C@@]34CCCN3C[C@@]3(CC3(F)F)C4)nc2c1F [Example 25, 2-(4-((1R,5S)-3,8-diazabicyclo[3.2.1]octan-3-yl)-2-(((1S,7a'S)-2,2-difluorodihydro-1′H,3′H-spiro[cyclopropan-1,2′-pyrrolizin]-7a′(5′H)-yl)methoxy)-8-fluoropyridino[4,3-d]pyrimidin-7-yl)-4,6-dichloro-3-fluoroaniline] | > 1000 | > 100 | – | – |
| Oc1cc(Cl)c(C(F)(F)F)c(-c2ncc3c(N4CC5CCC(C4)N5)nc(OC[C@@]45CCCN4C[C@@]4(CC4(F)F)C5)nc3c2F)c1 [Example 40] | 51.6 | 14 | – | – |
| C#Cc1c(F)ccc2cc(O)cc(-c3ncc4c(N5C[C@H]6CC[C@@H](C5)N6)nc(OC[C@]56C[C@@H](F)CN5C[C@@]5(CC5(F)F)C6)nc4c3F)c12 [Example 15A, 4-(4-((1R,5S)-3,8-diazabicyclo[3.2.1]octan-3-yl)-8-fluoro-2-(((1S,6′R,7a'S)-2,2,6′-trifluorodihydro-1′H,3′H-spiro[cyclopropan-1,2′-pyrrolizin]-7a′(5′H)-yl)methoxy)pyridino[4,3-d]pyrimidin-7-yl)-5-ethynyl-6-fluoronaphthalen-2-ol] | 108 | 13.1 | – | – |
| Nc1cc(Cl)c(F)c(-c2ncc3c(N4C[C@H]5CC[C@@H](C4)N5)nc(OC[C@@]45CCCN4C[C@@]4(CC4(F)F)C5)nc3c2F)c1 [Example 46, 3-(4-((1R,5S)-3,8-diazabicyclo[3.2.1]octan-3-yl)-2-(((1S,7a'S)-2,2-difluorodihydro-1′H,3′H-spiro[cyclopropan-1,2′-pyrrolizin]-7a′(5′H)-yl)methoxy)-8-fluoropyridino[4,3-d]pyrimidin-7-yl)-5-chloro-4-fluoroaniline] | > 1000 | > 100 | – | – |
| C#Cc1c(F)ccc2cc(O)cc(-c3ncc4c(N5CC6CCC(C5)N6)nc(OCC56CC(F)(F)CCN5CC5(CC5)C6)nc4c3F)c12 [Example 13, 4-(4-((1R,5S)-3,8-diazabicyclo[3.2.1]octan-3-yl)-2-((7′,7′-difluorotetrahydro-3′-H-spiro[cyclopropan-1,2′-pyrrolizin]-8a′(1′H)-yl)methoxy)-8-fluoropyridino[4,3d]pyrimidin-7-yl)-5-ethynyl-6-fluoronaphthalen-2-ol trifluoroacetate] | 210 | 42.8 | – | – |
| Nc1cnc(C(F)(F)F)c(-c2ncc3c(N4C[C@H]5CC[C@@H](C4)N5)nc(OC[C@@]45CCCN4C[C@@]4(CC4(F)F)C5)nc3c2F)c1 [Example 52, 5-(4-((1R,5S)-3,8-diazabicyclo[3.2.1]octan-3-yl)-2-(((1S,7a'S)-2,2-difluorodihydro-1′H,3′H-spiro[cyclopropan-1,2′-pyrrolizin]-7a′(5′H)-yl)methoxy)-8-fluoropyridino[4,3-d]pyrimidin-7-yl)-6-(trifluoromethyl)pyridin-3-amine] | > 1000 | > 100 | – | – |
| Nc1cncc(-c2ncc3c(N4C[C@H]5CC[C@@H](C4)N5)nc(OC[C@@]45CCCN4C[C@@]4(CC4(F)F)C5)nc3c2F)c1C(F)(F)F [Example 53, 5-(4-((1R,5S)-3,8-diazabicyclo[3.2.1]octan-3-yl)-2-(((1S,7a'S)-2,2-difluorodihydro-1′H,3′H-spiro[cyclopropan-1,2′-pyrrolizin]-7a′(5′H)-yl)methoxy)-8-fluoropyridino[4,3-d]pyrimidin-7-yl)-4-(trifluoromethyl)pyridin-3-amine] | 896 | 60 | – | – |
| C#Cc1c(F)ccc2cc(O)cc(-c3ncc4c(N5C[C@H]6CC[C@@H](C5)N6)nc(OC[C@@]56C[C@@H](F)CN5CC5(CC5)C6)nc4c3F)c12 [Example 10B, 4-(4-((1R,5S)-3,8-diazabicyclo[3.2.1]octan-3-yl)-8-fluoro-2-(((6′R,7a′R)-6′-fluorodihydro-1′H,3′H-spiro[cyclopropan-1,2′-pyrrolizin]-7a′(5′H)-yl)methoxy)pyridino[4,3-d]pyrimidin-7-yl)-5-ethynyl-6-fluoronaphthalen-2-ol] | 17.3 | 0.51 | – | – |
| Cc1nc(N)cc(-c2ncc3c(N4C[C@H]5CC[C@@H](C4)N5)nc(OC[C@@]45CCCN4C[C@@]4(CC4(F)F)C5)nc3c2F)c1C(F)(F)F [Example 55, 4-(4-((1R,5S)-3,8-diazabicyclo[3.2.1]octan-3-yl)-2-(((1S,7a'S)-2,2-difluorodihydro-1′H,3′H-spiro[cyclopropan-1,2′-pyrrolizin]-7a′(5′H)-yl)methoxy)-8-fluoropyridino[4,3-d]pyrimidin-7-yl)-6-methyl-5-(trifluoromethyl)pyridin-2-amine] | 56.7 | 6.5 | – | – |
| C#Cc1c(F)ccc2cc(O)cc(-c3ncc4c(N5CCC6CCC(C5)N6)nc(OC[C@@]56CCCN5C[C@@]5(CC5(F)F)C6)nc4c3F)c12 (stereo partly drawn) [Example 28, 4-(4-(3,9-diazabicyclo[4.2.1]nonan-3-yl)-2-(((1S,7a'S)-2,2-difluorodihydro-1′H,3′H-spiro[cyclopropan-1,2′-pyrrolizin]-7a′(5′H)-yl)methoxy)-8-fluoropyridino[4,3-d]pyrimidin-7-yl)-5-ethynyl-6-fluoronaphthalen-2-ol] | 188 | 19.8 | – | – |
| C#Cc1c(F)ccc2cc(O)cc(-c3ncc4c(N5C[C@@H]6CC[C@](C)(C5)N6)nc(OC[C@@]56CCCN5C[C@@]5(CC5(F)F)C6)nc4c3F)c12 [Example 20B, 4-(2-(((1S,7a'S)-2,2-difluorodihydro-1′H,3′H-spiro[cyclopropan-1,2′-pyrrolizin]-7a′(5′H)-yl)methoxy)-8-fluoro-4-((1R,5S)-1-methyl-3,8-diazabicyclo[3.2.1]octan-3-yl)pyridino[4,3-d]pyrimidin-7-yl)-5-ethynyl-6-fluoronaphthol-2-ol] | – | – | 4.86 | 0.58 |
| C#Cc1c(F)ccc2cc(O)cc(-c3ncc4c(N5C[C@H]6CC[C@@H](C5)N6)nc(OC[C@]56CCC7(CC7)N5C[C@@H](F)C6)nc4c3F)c12 (relative stereo) [Example 12A, 4-(4-((1R,5S)-3,8-diazabicyclo[3.2.1]octan-3-yl)-8-fluoro-2-(((trans)-6′-fluorotetrahydrospiro[cyclopropan-1,3′-pyrrolizin]-7a′(5′H)-yl)methoxy)pyridino[4,3-d]pyrimidin-7-yl)-5-ethynyl-6-fluoronaphthalen-2-ol] | 24.8 | 3.07 | – | – |
| C#Cc1c(F)ccc2cc(O)cc(-c3ncc4c(N5C[C@H]6CC[C@@H](C5)N6)nc(OCC56CC(F)(F)CN5CC5(CC5)C6)nc4c3F)c12 (stereo partly drawn) [Example 14, 4-(4-((1R,5S)-3,8-diazabicyclo[3.2.1]octan-3-yl)-2-((6′,6′-difluorotetrahydro-3′-H-spiro[cyclopropan-1,2′-pyrrolizin]-8a′(1′H)-yl)methoxy)-8-fluoropyridino[4,3d]pyrimidin-7-yl)-5-ethynyl-6-fluoronaphthalen-2-ol] | – | – | 921 | > 100 |
| C#Cc1c(F)ccc2cc(O)cc(-c3ncc4c(N5C[C@H]6CC[C@@H](C5)N6)nc(OC[C@@]56C[C@H](F)CN5C[C@@]5(CC5(F)F)C6)nc4c3F)c12 [Example 15G, 4-(4-((1R,5S)-3,8-diazabicyclo[3.2.1]octan-3-yl)-8-fluoro-2-(((1S,6'S,7a′R)-2,2,6′-trifluorodihydro-1′H,3′H-spiro[cyclopropan-1,2′-pyrrolizin]-7a′(5′H)-yl)methoxy)pyridino[4,3-d]pyrimidin-7-yl)-5-ethynyl-6-fluoronaphthalen-2-ol] | 329 | 39.1 | – | – |
| Nc1cc(Cl)c(Cl)c(-c2ncc3c(N4C[C@H]5CC[C@@H](C4)N5)nc(OC[C@@]45CCCN4C[C@@]4(CC4(F)F)C5)nc3c2F)c1 [Example 47, 3-(4-((1R,5S)-3,8-diazabicyclo[3.2.1]octan-3-yl)-2-(((1S,7a'S)-2,2-difluorodihydro-1′H,3′H-spiro[cyclopropan-1,2′-pyrrolizin]-7a′(5′H)-yl)methoxy)-8-fluoropyridino[4,3-d]pyrimidin-7-yl)-4,5-dichloroaniline] | 62.3 | 4.54 | – | – |
